According to ChEMBL document CHEMBL4373709 (J Med Chem, 2019):
Numbered stars: 1 amine (or outer) side, 2 acyl side, 3 side chain; on linkers, the order of the positions; unused ones are H or OH. Square brackets hold non-standard residues; d marks the D form. Peptide text beside a SMILES is read from it. X1 = NCCCC[C@H](N)CN([C@@H](CCCCN)C(=O)[*:2])[*:1]; Tle = CC(C)(C)[C@H](N)C(=O)O

Key:
[1] = biological target: T1, Neurotensin receptor type 1 (Homo sapiens, UniProt P30989); test: Allosteric modulation of human GFP-fused PK-tagged Gq-coupled NTR1 expressed in CHOK1 cells assessed as induction of NT (8 to 13) peptide-mediated beta-arrestin recruitment measured after 90 mins by pathhunter assay; format: cell-based
T1 sequence (P30989 whole entry, the tested form may be a part): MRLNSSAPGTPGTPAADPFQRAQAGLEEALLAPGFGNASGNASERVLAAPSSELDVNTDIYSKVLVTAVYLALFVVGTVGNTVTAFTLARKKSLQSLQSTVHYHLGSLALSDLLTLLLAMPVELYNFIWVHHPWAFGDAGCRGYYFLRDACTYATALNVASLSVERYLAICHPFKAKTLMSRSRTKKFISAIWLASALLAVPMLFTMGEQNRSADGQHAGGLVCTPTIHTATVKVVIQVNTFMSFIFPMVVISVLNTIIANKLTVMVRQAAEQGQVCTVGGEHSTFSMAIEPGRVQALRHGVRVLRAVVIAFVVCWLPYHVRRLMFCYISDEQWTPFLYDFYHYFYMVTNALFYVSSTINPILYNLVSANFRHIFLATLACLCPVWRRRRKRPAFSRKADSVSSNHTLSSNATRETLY

[2] = Clearance in C57BL/6 mouse at 5 mg/kg, iv by LC-MS/MS analysis; format: ADME, organism-based; details: in vivo
[3] = Clearance in Sprague-Dawley rat at 5 mg/kg, iv by LC-MS/MS analysis; format: ADME, organism-based; details: in vivo
[4] = Ratio of drug level in brain to plasma of Sprague-Dawley rat at 30 mg/kg, po measured after 4 to 8 hrs by LC-MS/MS analysis; format: ADME, organism-based; details: brain and plasma, read-out: BPR
[5] = biological target: T1, Neurotensin receptor type 1; test: Positive allosteric modulation of recombinant human NTR1 expressed in HEK293 cells assessed as increase in [125I]-neurotensin binding measured after 45 mins; format: cell-based
[6] = Toxicity in DAT knockout C57BL/6J mouse assessed as hypotension at 12 mg/kg, ip; format: organism-based; details: in vivo
[7] = Toxicity in DAT knockout C57BL/6J mouse assessed as hypothermia at 12 mg/kg, ip; format: organism-based; details: in vivo
[8] = Cmax in C57BL/6 mouse at 30 mg/kg, po by LC-MS/MS analysis; format: ADME, organism-based; set-up: dose 30 mg/kg, route oral; details: in vivo
[9] = AUC in C57BL/6 mouse at 30 mg/kg, po by LC-MS/MS analysis; format: ADME, organism-based; details: in vivo
[10] = Half life in C57BL/6 mouse at 30 mg/kg, po by LC-MS/MS analysis; format: ADME, organism-based; details: in vivo
[11] = Oral bioavailability in C57BL/6 mouse at 30 mg/kg by LC-MS/MS analysis; format: ADME, organism-based; details: in vivo
[12] = Ratio of drug level in brain to plasma of C57BL/6 mouse at 30 mg/kg, po measured after 1 hr by LC-MS/MS analysis; format: ADME, organism-based
[13] = Toxicity in DAT knockout C57BL/6J mouse assessed as hypotension at 1 mg/kg, ip; format: organism-based; details: in vivo
[14] = Toxicity in DAT knockout C57BL/6J mouse assessed as hypothermia at 1 mg/kg, ip; format: organism-based; details: in vivo
[15] = biological target: Neurotensin receptor type 1 (Rattus norvegicus, UniProt P20789); test: Displacement of [125I]neurotensin from rat brain NTR1
Chain of Neurotensin receptor type 1 (Rattus norvegicus, UniProt P20789) (P20789 whole entry): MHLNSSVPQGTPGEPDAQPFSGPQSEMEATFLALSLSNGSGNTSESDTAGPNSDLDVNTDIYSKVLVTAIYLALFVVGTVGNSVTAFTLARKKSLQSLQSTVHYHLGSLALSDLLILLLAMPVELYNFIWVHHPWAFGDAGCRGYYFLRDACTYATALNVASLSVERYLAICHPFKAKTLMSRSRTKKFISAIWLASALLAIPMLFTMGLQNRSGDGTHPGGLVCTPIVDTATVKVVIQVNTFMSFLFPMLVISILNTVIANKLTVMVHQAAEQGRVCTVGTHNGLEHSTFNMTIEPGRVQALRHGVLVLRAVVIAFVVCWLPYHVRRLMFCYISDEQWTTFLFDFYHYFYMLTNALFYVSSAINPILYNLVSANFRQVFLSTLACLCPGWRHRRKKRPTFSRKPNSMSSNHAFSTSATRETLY

[16] = Volume of distribution in C57BL/6 mouse at 5 mg/kg, iv by LC-MS/MS analysis; format: ADME, organism-based; details: in vivo
[17] = AUC in Sprague-Dawley rat at 30 mg/kg, po by LC-MS/MS analysis; format: ADME, organism-based; details: in vivo
[18] = Half life in Sprague-Dawley rat at 30 mg/kg, po by LC-MS/MS analysis; format: ADME, organism-based; details: in vivo
[19] = Oral bioavailability in Sprague-Dawley rat at 30 mg/kg by LC-MS/MS analysis; format: ADME, organism-based; details: in vivo
[20] = Ratio of drug level in brain to plasma of Sprague-Dawley rat at 30 mg/kg, po measured after 1 hr by LC-MS/MS analysis; format: ADME, organism-based; details: brain and plasma, read-out: BPR
[21] = Toxicity in DAT knockout C57BL/6J mouse assessed as hypotension at 10 to 100 mg/kg, po; format: organism-based; details: in vivo
[22] = Toxicity in DAT knockout C57BL/6J mouse assessed as hypothermia at 10 to 100 mg/kg, po; format: organism-based; details: in vivo

COc1ccccc1C1CCN(c2nc(C3(F)CC3)nc3ccc(N(C)CCO)cc23)CC1
EC50 [1]: 340 nM
clearance [2]: 44.8 mL/min/kg
clearance [3]: 81 mL/min/kg
Kp [4]: 0.98
EC50 [5]: 140 nM
Activity [6]: Non-Toxic
Activity [7]: Non-Toxic

COc1ccccc1C1CCN(c2nc(C3(C)CC3)nc3ccc(N(C)CCO)cc23)CC1.Cl
Cmax [8]: 627 ng/mL
AUC [9]: 3324 ng·h/mL
t1/2 [10]: 2.9 h
F ([11]; mouse): 52%
BPR [12]: 0.35

CCOC(=O)[C@H](CC(C)C)NC(=O)[C@@H](NC(=O)[C@H](Cc1c[nH]c2ccccc12)NC(=O)[C@@H]1CCCN1C(=O)[C@H](CCCCN)NC[C@@H](N)CCCCN)C(C)(C)C (H-[X1]PW[Tle]L-OEt)
Activity [13]: Toxic
Activity [14]: Toxic

COc1cccc(OC)c1-c1cc(C(=O)NC2(C(=O)O)C3CC4CC(C3)CC2C4)nn1-c1ccnc2cc(Cl)ccc12 (stereo not drawn) [REMINERTANT]
IC50 [15]: 82 nM

COc1ccccc1C1CCN(c2nc(C3(C)CC3)nc3ccc(N(C)CCO)cc23)CC1
EC50 [1]: 98 nM
clearance [2]: 79.4 mL/min/kg
Vd [16]: 7.68 L/kg

COc1ccccc1C1CCN(c2nc(C3(F)CC3)nc3ccc(N(C)CCO)cc23)CC1.Cl
AUC [9]: 4824 ng·h/mL
t1/2 [10]: 5.28 h
bioavailability ([11]; C57BL/6, mouse): 45%
BPR [12]: 0.54
AUC [17]: 2693 ng·h/mL
t1/2 [18]: 2.23 h
bioavailability [19]: 48%
Kp at 1 h [20]: 0.98
Activity [21]: Non-Toxic
Activity [22]: Non-Toxic
